# Results: patent US20120004205A1, “IL-13 INDUCED GENE SIGNATURE FOR EOSINOPHILIC ESOPHAGITIS” (Cincinnati Children's Hospital Medical Center, priority 2008, published 2012)
# Tests used:
# IL-13 mRNA = IL-13 mRNA in esophageal biopsy specimens of FP-treated EE patients, real-time PCR; assay type: in vivo, human; conditions: patients with EE treated successfully with FP
# Experimental: (§1) For each patient, one distal esophageal mucosal biopsy sample was immersed in RNA, later RNA stabilization reagent (Qiagen) and stored at 4 C. for <15 days. Total RNA was extracted using the RNAeasy Mini Kit (Qiagen) according to the manufacturer's recommendations. Hybridization to DNA microarray was performed by the MicroarrayCore at Cincinnati Children's Hospital Medical Center, as previously reported Blanchard, C. et al., (2006) J. Clin. Invest. 116: 536-547. The genome wide human Affymetrix U133A plus 2.0 Genechip® was used, and gene transcript levels were determined using algorithms in the Microarray Analysis Suite and GeneSpring software (Silicon Genetics) as previously described Blanchard, C. et al., (2006) J. Clin. Invest. 116: 536-547. […] Response to therapy was defined as <1 eosinophils/high power field (hpf) and no epithelial cell hyperplasia as described herein.
# (§2) (rev) […]; IL-13R2 (396 bp): (fwd): […] (rev) […]; IL-4Rα (335 bp): (fwd): […]
# (§3) Wood, N. et al., (2003) J. Exp. Med. 197: 703-709. In patients with EE with successful anti-inflammatory intervention, IL-13 overexperssion can be normalized. […] Similarly, eotaxin-3 mRNA was normalized in FP-responder patients (P<0.01; FIG. 6B). […] Remarkably, 98% of the EE transcriptome was reversed to expression levels detected in biopsy specimens of healthy patients (FIG. 6C). […]
# eotaxin-3 mRNA = assay: Eotaxin-3 mRNA in esophageal biopsy specimens of FP-treated EE patients, real-time PCR; assay type: in vivo, human; conditions: P<0.01
# Experimental: as §1, §2, §3
# EE transcriptome = assay: Microarray analysis of the EE transcriptome in successfully treated EE patients; assay type: in vivo, human
# Experimental: as §1, with “herein. […] Wood, N. et al., (2003) J. Exp. Med. 197: 703-709. In patients with EE with successful anti-inflammatory intervention, IL-13 overexperssion can be normalized. […] Similarly, eotaxin-3 mRNA was normalized in FP-responder patients (P<0.01; FIG. 6B). […] Remarkably, 98% of the EE transcriptome was reversed to expression levels detected in biopsy specimens of healthy patients (FIG. 6C). […]” for “herein.”
# cadherin-26 (CDH26) = assay: Cadherin-26 expression in FP-treated EE patients, real-time PCR; assay type: in vivo, human; conditions: P<0.05
# Text: as §2
# Wood, N. et al., (2003) J. Exp. Med. 197: 703-709. In patients with EE with successful anti-inflammatory intervention, IL-13 overexperssion can be normalized. […] Similarly, eotaxin-3 mRNA was normalized in FP-responder patients (P<0.01; FIG. 6B). The research next aimed to determine whether the EE transcriptome was also reversible in patients with EE successfully treated with glucocorticoids. Remarkably, 98% of the EE transcriptome was reversed to expression levels detected in biopsy specimens of healthy patients (FIG. 6C). The reversible genes include cell-specific transcripts, including eosinophil, mast cell, lymphocyte, fibroblast, and epithelial genes. In addition, genes involved in cellular recruitment and cell proliferation were also reversible. Although the biopsy specimens had no abnormal microscopic features, 12 genes were still dysregulated (FIG. 6B).
# patients with EE = conditions: in vivo; cited from earlier work
compound,measurement,setting,value
"CCC(=O)O[C@]1(C(=O)SCF)[C@H](C)C[C@H]2[C@@H]3C[C@H](F)C4=CC(=O)C=C[C@]4(C)[C@@]3(F)[C@@H](O)C[C@@]21C [FP, S-fluoromethyl-6α,9-difluoro-11β-hydroxy-16α-methyl-3-oxo androsta-1,4-diene-17β-carbothioate, 17-propionate]",IL-13 mRNA levels in EE responders compared with untreated specimens,IL-13 mRNA,significantly (P<0.01) reduced
same,eotaxin-3 mRNA in FP-responder patients,eotaxin-3 mRNA,normalized
same,EE transcriptome reversed to expression levels of healthy patients,EE transcriptome; patients with EE successfully treated with glucocorticoids,98%
same,genes still dysregulated after treatment,"EE transcriptome; successfully treated EE patients, fold change filter 2",12 genes
same,cadherin-26 expression in FP-treated patients with EE,cadherin-26 (CDH26),residual upregulation
same,EE disease remission compared with placebo treatment,patients with EE,induces EE disease remission
